Data set [1] concerns the target PKCtheta (Homo sapiens, UniProt Q04759). Briefly: biochemical. Conditions: read-out: % enzyme activity, 1 μM; Run 1, Run 2.
Data set [2] can be described thus: mouse liver microsomal stability assay. Type of data set: in vitro ADME. Conditions: male, CD-1, mouse, microsomes, pH 7.4, mouse liver microsomes, 60 min, 37 °C, read-out: MLM % Remaining at 1h.
The target in data set [3] is SRPK2 (Homo sapiens, UniProt P78362). Conditions: 1 μM; Run 1, Run 2.
For data set [4], the target named is T1, MST2/STK3 (Homo sapiens, UniProt Q13188).
T1 sequence (Q13188 1-491): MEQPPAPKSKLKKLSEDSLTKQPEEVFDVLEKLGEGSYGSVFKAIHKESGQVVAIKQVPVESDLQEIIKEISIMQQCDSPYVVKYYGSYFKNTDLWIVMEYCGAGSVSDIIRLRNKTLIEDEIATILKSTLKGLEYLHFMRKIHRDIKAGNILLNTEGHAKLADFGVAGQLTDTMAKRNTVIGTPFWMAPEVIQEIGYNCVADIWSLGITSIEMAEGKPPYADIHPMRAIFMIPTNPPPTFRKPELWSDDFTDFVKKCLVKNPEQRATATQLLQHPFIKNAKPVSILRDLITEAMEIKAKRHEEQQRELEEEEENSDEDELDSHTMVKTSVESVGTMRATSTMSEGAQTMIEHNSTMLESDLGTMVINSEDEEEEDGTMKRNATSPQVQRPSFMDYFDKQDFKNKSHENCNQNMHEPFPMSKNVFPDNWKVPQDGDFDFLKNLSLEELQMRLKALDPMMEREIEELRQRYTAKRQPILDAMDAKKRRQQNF
The data set can be described thus: biochemical. As to conditions: read-out: % enzyme activity, 1 μM; Run 1, Run 2.

The target of data set [5] is T2, ULK1 (Homo sapiens, UniProt O75385).
T2 sequence (O75385 1-1050): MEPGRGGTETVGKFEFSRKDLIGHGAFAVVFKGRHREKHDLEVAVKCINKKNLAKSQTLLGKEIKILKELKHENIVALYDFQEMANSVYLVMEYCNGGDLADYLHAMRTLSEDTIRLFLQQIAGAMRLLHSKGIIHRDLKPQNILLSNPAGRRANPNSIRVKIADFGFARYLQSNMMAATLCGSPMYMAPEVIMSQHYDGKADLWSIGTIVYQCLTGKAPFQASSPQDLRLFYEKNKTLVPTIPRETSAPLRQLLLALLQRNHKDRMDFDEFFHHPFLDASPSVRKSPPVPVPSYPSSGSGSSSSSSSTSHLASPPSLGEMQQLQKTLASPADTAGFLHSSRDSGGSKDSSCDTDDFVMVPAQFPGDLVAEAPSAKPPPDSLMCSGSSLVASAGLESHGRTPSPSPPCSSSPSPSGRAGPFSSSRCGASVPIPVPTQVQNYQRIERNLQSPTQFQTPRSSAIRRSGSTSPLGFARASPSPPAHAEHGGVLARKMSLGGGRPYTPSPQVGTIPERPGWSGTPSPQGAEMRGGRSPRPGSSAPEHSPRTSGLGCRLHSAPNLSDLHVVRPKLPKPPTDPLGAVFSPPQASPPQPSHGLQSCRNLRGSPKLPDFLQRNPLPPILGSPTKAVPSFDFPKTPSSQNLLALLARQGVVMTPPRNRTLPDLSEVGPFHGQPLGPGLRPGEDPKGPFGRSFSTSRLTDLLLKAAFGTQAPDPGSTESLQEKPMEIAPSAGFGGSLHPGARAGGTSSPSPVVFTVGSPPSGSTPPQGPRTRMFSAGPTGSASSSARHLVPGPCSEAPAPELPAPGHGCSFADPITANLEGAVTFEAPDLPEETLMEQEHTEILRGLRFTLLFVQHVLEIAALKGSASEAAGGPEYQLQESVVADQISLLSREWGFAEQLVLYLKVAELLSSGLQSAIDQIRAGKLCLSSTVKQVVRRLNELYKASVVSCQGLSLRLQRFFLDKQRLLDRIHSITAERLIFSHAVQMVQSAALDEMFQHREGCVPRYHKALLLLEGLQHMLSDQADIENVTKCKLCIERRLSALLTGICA
Briefly: biochemical. Conditions: read-out: % enzyme activity, 1 μM; Run 1, Run 2.

For data set [6], the target named is p70S6K/RPS6KB1 (Homo sapiens, UniProt P23443). Conditions: 1 μM; Run 1, Run 2.
Sequence of p70S6K/RPS6KB1 (P23443 whole entry): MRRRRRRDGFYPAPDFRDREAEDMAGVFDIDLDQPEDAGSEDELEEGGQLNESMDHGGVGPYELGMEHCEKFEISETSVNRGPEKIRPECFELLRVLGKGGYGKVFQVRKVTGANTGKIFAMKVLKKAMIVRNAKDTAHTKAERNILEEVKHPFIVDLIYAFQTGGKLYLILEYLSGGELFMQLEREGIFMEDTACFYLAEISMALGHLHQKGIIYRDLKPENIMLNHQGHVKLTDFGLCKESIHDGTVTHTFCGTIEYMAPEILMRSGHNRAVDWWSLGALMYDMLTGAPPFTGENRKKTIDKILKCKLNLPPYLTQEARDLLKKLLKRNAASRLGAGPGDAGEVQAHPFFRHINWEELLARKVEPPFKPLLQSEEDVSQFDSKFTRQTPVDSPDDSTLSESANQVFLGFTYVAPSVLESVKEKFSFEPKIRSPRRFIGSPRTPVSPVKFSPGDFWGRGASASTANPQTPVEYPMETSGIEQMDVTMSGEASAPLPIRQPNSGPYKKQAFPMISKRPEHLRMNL
The target in data set [7] is T3, CYP1A2 (Homo sapiens, UniProt P05177).
T3 construct: tissue Corning 452117; host or cells: pooled human liver microsomes (UltraPool HLM 150, mixed gender)
T3 sequence (P05177 whole entry): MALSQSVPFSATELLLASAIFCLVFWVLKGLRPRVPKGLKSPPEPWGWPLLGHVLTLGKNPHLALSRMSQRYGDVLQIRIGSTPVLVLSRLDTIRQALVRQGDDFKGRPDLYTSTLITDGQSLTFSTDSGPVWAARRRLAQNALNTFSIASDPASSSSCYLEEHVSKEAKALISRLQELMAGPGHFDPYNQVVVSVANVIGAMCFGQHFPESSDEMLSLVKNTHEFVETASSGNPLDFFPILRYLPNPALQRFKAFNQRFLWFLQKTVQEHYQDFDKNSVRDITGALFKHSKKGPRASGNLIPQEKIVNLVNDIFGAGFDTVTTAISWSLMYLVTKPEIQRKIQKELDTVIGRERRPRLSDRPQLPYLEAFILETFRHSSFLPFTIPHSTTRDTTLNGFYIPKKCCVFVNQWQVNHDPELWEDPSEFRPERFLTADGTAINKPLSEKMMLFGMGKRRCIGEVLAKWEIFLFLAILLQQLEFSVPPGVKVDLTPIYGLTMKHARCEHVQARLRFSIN
The data set can be described thus: CYP inhibition assay. Format: in vitro ADME. Conditions: human liver microsomes.

The target of data set [8] is RON/MST1R (Homo sapiens, UniProt Q04912). Conditions: 1 μM; Run 1, Run 2.
Sequence of RON/MST1R (Q04912 25-1400): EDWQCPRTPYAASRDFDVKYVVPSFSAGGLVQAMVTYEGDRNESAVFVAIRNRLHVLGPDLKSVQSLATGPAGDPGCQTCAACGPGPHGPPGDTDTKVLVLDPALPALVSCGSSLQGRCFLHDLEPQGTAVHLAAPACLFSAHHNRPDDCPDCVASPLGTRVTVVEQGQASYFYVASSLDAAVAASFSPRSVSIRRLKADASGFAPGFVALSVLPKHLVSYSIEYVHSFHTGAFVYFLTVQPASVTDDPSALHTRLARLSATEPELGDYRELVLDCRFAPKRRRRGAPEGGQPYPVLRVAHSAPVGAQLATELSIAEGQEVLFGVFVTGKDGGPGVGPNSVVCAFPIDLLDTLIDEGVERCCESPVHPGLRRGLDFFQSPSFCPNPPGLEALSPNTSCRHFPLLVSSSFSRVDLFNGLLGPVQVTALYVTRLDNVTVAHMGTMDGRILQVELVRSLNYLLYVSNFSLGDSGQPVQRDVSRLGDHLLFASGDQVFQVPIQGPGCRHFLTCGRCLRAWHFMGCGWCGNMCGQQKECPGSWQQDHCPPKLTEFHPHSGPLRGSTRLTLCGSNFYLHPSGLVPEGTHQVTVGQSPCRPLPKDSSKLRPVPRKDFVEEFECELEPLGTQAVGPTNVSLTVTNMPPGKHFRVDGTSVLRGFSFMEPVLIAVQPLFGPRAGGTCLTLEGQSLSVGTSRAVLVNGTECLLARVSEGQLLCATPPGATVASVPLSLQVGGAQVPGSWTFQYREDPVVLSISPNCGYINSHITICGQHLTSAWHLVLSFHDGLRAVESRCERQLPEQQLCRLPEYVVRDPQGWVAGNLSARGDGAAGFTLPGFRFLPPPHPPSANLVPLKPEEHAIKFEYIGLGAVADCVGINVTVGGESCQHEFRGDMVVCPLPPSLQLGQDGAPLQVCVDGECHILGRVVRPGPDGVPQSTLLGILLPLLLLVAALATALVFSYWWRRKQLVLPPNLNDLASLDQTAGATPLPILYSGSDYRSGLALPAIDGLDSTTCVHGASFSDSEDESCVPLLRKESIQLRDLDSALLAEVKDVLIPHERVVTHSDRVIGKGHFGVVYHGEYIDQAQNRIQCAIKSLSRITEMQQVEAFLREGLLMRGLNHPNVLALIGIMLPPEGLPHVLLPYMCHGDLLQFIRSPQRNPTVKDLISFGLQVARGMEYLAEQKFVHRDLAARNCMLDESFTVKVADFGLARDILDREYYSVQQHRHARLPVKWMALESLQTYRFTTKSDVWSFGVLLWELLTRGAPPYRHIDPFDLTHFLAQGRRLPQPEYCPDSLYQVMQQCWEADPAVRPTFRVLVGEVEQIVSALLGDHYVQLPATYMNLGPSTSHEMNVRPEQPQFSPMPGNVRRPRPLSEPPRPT
In data set [9] the target is T4, TAOK3/JIK (Homo sapiens, UniProt Q9H2K8).
T4 sequence (Q9H2K8 1-898): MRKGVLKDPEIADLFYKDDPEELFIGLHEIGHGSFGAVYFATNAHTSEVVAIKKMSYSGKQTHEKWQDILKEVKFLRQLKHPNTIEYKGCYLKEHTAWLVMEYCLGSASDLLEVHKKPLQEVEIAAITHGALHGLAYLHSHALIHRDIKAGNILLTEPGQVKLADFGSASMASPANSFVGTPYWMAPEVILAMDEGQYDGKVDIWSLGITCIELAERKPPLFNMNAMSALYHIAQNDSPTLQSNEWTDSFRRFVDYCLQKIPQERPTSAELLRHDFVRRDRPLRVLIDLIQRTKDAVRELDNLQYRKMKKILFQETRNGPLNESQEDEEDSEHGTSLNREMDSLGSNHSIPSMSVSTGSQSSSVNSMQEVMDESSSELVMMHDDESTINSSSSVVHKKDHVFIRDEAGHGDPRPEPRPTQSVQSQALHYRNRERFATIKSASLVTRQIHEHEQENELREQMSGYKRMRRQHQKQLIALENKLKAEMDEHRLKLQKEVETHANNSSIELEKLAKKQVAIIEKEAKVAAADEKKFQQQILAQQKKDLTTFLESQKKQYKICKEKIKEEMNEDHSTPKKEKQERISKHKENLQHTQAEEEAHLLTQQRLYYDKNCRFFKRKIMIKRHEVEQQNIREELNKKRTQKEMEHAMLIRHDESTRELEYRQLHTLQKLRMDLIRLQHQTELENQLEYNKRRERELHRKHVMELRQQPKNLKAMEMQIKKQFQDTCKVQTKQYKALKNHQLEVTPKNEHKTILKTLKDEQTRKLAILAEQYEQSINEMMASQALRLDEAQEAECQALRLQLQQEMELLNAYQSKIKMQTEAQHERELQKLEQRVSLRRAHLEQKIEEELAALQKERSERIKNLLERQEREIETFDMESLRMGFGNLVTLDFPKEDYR
Briefly: biochemical. Conditions: read-out: % enzyme activity, 1 μM; Run 1, Run 2.

Data set [10] deals with BRK (Homo sapiens, UniProt Q13882). Conditions: 1 μM; Run 1, Run 2.
Sequence of BRK (Q13882 whole entry): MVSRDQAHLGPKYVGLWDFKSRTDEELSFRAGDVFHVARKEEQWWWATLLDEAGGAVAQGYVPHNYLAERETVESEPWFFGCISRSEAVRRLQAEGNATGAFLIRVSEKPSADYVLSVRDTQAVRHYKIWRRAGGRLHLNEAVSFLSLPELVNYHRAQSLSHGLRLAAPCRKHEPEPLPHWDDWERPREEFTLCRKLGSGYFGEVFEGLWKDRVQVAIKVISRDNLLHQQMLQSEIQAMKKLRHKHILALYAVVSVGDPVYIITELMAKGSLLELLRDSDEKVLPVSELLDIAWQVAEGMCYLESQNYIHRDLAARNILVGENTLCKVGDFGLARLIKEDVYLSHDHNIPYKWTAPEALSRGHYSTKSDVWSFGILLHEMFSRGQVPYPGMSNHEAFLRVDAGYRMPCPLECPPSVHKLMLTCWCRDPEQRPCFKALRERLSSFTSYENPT

Structures are written as SMILES.

Sequence of SRPK2 (P78362 whole entry): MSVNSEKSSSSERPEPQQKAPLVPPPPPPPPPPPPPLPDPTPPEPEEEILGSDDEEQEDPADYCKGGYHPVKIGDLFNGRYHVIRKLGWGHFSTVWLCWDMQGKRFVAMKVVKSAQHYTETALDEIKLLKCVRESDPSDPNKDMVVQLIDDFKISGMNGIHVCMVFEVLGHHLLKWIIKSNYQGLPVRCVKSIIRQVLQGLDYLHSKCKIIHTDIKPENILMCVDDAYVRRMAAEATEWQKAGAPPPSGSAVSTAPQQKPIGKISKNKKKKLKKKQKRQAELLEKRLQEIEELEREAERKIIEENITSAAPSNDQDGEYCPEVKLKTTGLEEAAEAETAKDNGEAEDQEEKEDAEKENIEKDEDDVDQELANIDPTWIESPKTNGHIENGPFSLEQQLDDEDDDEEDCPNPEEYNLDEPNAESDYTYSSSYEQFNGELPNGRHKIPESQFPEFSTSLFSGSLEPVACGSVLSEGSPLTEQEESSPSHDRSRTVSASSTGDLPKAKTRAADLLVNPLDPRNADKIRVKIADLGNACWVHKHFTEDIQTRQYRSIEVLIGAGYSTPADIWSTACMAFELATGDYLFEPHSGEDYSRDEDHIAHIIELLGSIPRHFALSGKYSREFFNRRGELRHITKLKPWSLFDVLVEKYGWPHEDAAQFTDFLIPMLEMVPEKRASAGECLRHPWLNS
Sequence of PKCtheta (Q04759 whole entry): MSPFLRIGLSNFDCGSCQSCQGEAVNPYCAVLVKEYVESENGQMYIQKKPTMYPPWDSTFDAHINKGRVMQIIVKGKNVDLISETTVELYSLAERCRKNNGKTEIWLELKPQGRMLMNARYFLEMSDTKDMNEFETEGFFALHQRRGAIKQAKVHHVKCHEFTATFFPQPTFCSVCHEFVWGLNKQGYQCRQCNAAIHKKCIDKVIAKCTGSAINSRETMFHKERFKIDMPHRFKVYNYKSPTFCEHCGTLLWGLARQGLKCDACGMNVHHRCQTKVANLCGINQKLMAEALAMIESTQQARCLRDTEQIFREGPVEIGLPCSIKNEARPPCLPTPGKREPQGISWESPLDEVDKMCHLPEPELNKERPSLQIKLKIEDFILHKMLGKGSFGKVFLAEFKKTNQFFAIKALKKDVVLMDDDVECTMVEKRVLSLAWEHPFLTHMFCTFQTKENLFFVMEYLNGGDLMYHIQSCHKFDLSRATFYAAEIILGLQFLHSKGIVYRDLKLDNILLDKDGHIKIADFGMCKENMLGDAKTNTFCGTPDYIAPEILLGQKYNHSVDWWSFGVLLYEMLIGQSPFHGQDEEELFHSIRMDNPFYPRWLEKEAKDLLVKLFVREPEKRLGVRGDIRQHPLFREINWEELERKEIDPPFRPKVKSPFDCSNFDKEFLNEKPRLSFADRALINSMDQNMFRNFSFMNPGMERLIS

The amount remaining is the share of the starting amount still present when the sample was taken. As a reminder, the IC50 is the point on the concentration scale where inhibition reaches its midpoint. As for `COc1cc(-c2cncc(-c3ccc(N4CCN(C)CC4)cc3)c2C)cc(F)c1C(N)=O` [Compound 26a, 2-Fluoro-6-methoxy-4-(4-methyl-5-(4-(4-methylpiperazin-1-yl)phenyl)pyridin-3-yl)benzamide], the remaining activity at 1 µM turned out to be 85.1% in data set [1], 95.6% in [4], 84.7% in data set [5] and 69.7% in [9]. Further, in data set [2], the fraction remaining at 1 h, 1 μM worked out at 54.6%. In addition, the “% enzyme activity” value was 94.13% in data set [3], 96.69% in [6], 97.00% in [8] and 58.28% in data set [10]. The molecule also returned an IC50 in data set [7] above 50 µM.
Turning to `COc1cc(-c2cncc(-c3ccc(N4C[C@@H](C)N(C)[C@@H](C)C4)cc3)c2C)cc(F)c1C(N)=O` [Compound 26c, 2-Fluoro-6-methoxy-4-(4-methyl-5-(4-((3R,5S)-3,4,5-trimethylpiperazin-1-yl)phenyl)pyridin-3-yl)benzamide], the remaining activity at 1 µM in [1] came to 87%; in data set [4], 102%; in data set [5], 89.8%; in data set [9] it was 84.5%. Further, in [2], the fraction remaining at 1 h, 1 μM worked out at 48.7%. For the same molecule, the “% enzyme activity” value in data set [3] is listed as 115.95%; in data set [6] it was 99.76%; in [8], 104.29%; in data set [10], 73.52%. The molecule also showed an IC50 in data set [7] above 50 µM.

Values taken from publication PMC8213057, “Targeting ALK2: An Open Science Approach to Developing Therapeutics for the Treatment of Diffuse Intrinsic Pontine Glioma” (Journal of Medicinal Chemistry, 2020).
